According to the supplement of paper PMC10307832:

Assays:
Assay in all cases: relative viability (nuclei count vs DMSO), 5 days (fraction); higher = more cells survive
[1] = compound: CN1CCC(CC1)OC2=CC(=C(C=C2)NC3=NC=C4C(=N3)N(C(=O)N4C)C5CCCC5)OC [AZ3146] + O=C(CCCCCCC(=O)Nc1ccccc1)NO [Vorinostat] (partner 1 µM)
How it was run: (§1)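 Lung cancer cell lines in 1536-well plates got either a single drug or a fixed anchor-drug dose together with five library-drug doses (not always all listed) in √10 steps, by pin tool, on the day after seeding. Nuclei were counted after 5 days, and relative viability is the treated-to-vehicle ratio of nuclei counts. Values are medians of duplicate plates.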

[2] = compound: CCOC(=O)CCNc1cc(N2CCc3ccccc3CC2)nc(-c2ccccn2)n1 [GSK-J4] + O=C(c1cc(Cc2n[nH]c(=O)c3ccccc23)ccc1F)N1CCN(C(=O)C2CC2)CC1 [Olaparib] (partner 8 µM)
How it was run: as §1

[3] = compound: CCOC(=O)CCNc1cc(N2CCc3ccccc3CC2)nc(-c2ccccn2)n1 [GSK-J4] + Nc1nc2[nH]cc(CCc3ccc(C(=O)N[C@@H](CCC(=O)O)C(=O)O)cc3)c2c(=O)[nH]1 [Pemetrexed] (partner 0.2 µM)
How it was run: as §1

[4] = compound: CN1CCC(CC1)OC2=CC(=C(C=C2)NC3=NC=C4C(=N3)N(C(=O)N4C)C5CCCC5)OC [AZ3146] + CS(=O)(=O)N1CCN(Cc2cc3nc(-c4cccc5[nH]ncc45)nc(N4CCOCC4)c3s2)CC1 [Pictilisib] (partner 1 µM)
How it was run: as §1

Cell Line	relative viability ([1]; first compound 0.08 µM)	relative viability ([1]; first compound 0.253 µM)	relative viability ([1]; first compound 0.8 µM)	relative viability ([1]; first compound 2.53 µM)	relative viability ([1]; first compound 8 µM)	relative viability ([2]; first compound 0.5 µM)	relative viability ([2]; first compound 1.581 µM)	relative viability ([2]; first compound 5 µM)	relative viability ([2]; first compound 15.81 µM)	relative viability ([2]; first compound 50 µM)	relative viability ([3]; first compound 0.5 µM)	relative viability ([3]; first compound 1.581 µM)	relative viability ([3]; first compound 5 µM)	relative viability ([3]; first compound 15.81 µM)	relative viability ([3]; first compound 50 µM)	relative viability ([4]; first compound 0.08 µM)	relative viability ([4]; first compound 0.253 µM)	relative viability ([4]; first compound 0.8 µM)	relative viability ([4]; first compound 2.53 µM)	relative viability ([4]; first compound 8 µM)
NCI-H647	0.537	0.426	0.607	0.667	0.186	0.456	0.471	0.545	0.5	0.374	0.175	0.177	0.168	0.184	0.205	0.485	0.423	0.258	0.366	0.476
NCI-H650	0.237	0.374	0.265	0.447	0.4	0.356	0.371		0.272	0.296	0.82	0.843		0.833	0.842	0.661	0.837	0.634	0.905	1.01
NCI-H661	0.701	0.846	0.786	0.813	0.505	0.704	0.67	0.7	0.559	0.461	0.908	0.827	0.883	0.883	0.788	0.489	0.417	0.34	0.463	0.446
NCI-H838	0.67	0.756	0.69	0.589	0.308	0.696	0.653	0.514	0.568	0.411	0.242	0.219	0.218	0.248	0.199	0.557	0.467	0.39	0.387	0.266
NCI-H1355	0.517	0.619	0.69	0.712	0.622	0.732	0.672	0.762	0.677	0.503	0.988	0.975	0.889	0.858	0.992	0.334	0.452	0.525	0.467	0.512
NCI-H1395	0.66	0.504		0.84	0.615	0.435	0.48	0.399	0.45	0.406	0.894	0.73	0.707	0.764	0.707	0.536	0.628	0.539	0.623	0.726
NCI-H1437	0.774	0.771	0.842	0.839	0.538	0.587	0.596	0.601	0.609	0.301	0.298	0.317	0.3	0.297	0.262	0.432	0.376	0.45	0.393	0.461
